Tests used:
[1] = upon intravascular administration; cellular uptake and kidney clearance; cited from earlier work
mice = settings: cited from earlier work
[2] = Solubility in water and plasma, by absorbance versus wavelength (FIG. 20A); type: physicochemical; settings: absorbance plots FIG. 20A, HMW-ICL-670 was 20% (by weight) ICL-670
Protocol: FIGS. 20A and 20B are plots of absorbance of radiation in water versus wavelength of the radiation, for low molecular weight ICL670 (3 mg/ml) and the chelation structure of the present invention (denoted as HMW) dissolved in the water, in accordance with embodiments of the present invention. […] The measured absorbance increases with increasing concentration of the chelators/chelation structures dissolved in the water and is thus a measure of the solubility of the chelators/chelation structures in the water.

solubility in water [2] | SMILES | time to complete clearance from the vasculature [1] | LD50 (mice)
 | CC(=O)N(O)CCCCCNC(=O)CCC(=O)N(O)CCCCCNC(=O)CCC(=O)N(O)CCCCCN.CS(=O)(=O)O [DFO, N-[5-(3-[(5-aminopentyl)-hydroxycarbamoyl]-propionamido)pentyl]-3-([5-(N-hydroxyacetamido)-pentyl]-carbamoyl)-propionohydroxamic acid monomethane sulphonate] | approximately 20 minutes | ~250 mg/kg
insoluble in water | O=C(O)c1ccc(-n2nc(-c3ccccc3O)nc2-c2ccccc2O)cc1 [ICL670, 4-[3,5-bis(2-hydroxyphenyl)-1,2,4-triazol-1-yl]-benzoic acid] |  | 

— patent US8454934B2, “High molecular weight chelation structure” (Canadian Blood Services, priority 2006, dated 2013)
